Test results published in patent publication US20230085307A1, “PYRIDAZINONE COMPOUND AND HERBICIDE” (NISSAN CHEMICAL CORPORATION, priority 2019, published 2023).

How the values were obtained:
blackgrass [1] = assay: Test Example 4: herbicidal effect by soil treatment (Table 19, symbol J); format: in vivo, blackgrass (Alopecurus myosuroides); details: amount of applied herbicide 320 g/ha
How it was run: (§1)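 Herbicidal effect was rated 3 weeks after treatment, using the scoring criteria of an earlier test. The compound, formulated as an emulsion and diluted in water to a set herbicide amount, had been sprayed uniformly on soil over freshly sown seeds. Growth took place in a greenhouse at 25° C. to 30° C.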

redroot pigweed [2] = assay: Test Example 4: herbicidal effect by soil treatment (Table 19, symbol N); format: in vivo, redroot pigweed (Amaranthus retroflexus); details: amount of applied herbicide 320 g/ha
How it was run: as §1

wild oat [3] = assay: Test Example 5: herbicidal effect by foliage application, plastic box (Table 20, symbol I); format: in vivo, wild oat (Avena fatua); details: amount of applied herbicide 320 g/ha; foliage application after 14-day growth; evaluated three weeks after application
How it was run: (§2)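 Foliar spray test: emulsion formulation diluted in water to a set application rate, sprayed onto 14-day-old plants raised in diluvial soil at 25° C to 30° C under glass. Both herbicidal effect and crop effect rated visually three weeks later.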

Italian ryegrass [4] = assay: Test Example 5: herbicidal effect by foliage application, plastic box (Table 20, symbol K); format: in vivo, Italian ryegrass (Lolium multiflorum); details: amount of applied herbicide 320 g/ha; foliage application after 14-day growth; evaluated three weeks after application
How it was run: as §2

Italian ryegrass [5] = assay: Test Example 4: herbicidal effect by soil treatment (Table 19, symbol K); format: in vivo, Italian ryegrass (Lolium multiflorum); details: amount of applied herbicide 320 g/ha
How it was run: as §1

lambsquarters [6] = assay: Test Example 5: herbicidal effect by foliage application, plastic box (Table 20, symbol O); format: in vivo, lambsquarters (Chenopodium album); details: amount of applied herbicide 320 g/ha; foliage application after 14-day growth; evaluated three weeks after application
How it was run: as §2

windgrass [7] = assay: Test Example 4: herbicidal effect by soil treatment (Table 19, symbol L); format: in vivo, windgrass (Apera spica-venti); details: amount of applied herbicide 320 g/ha
How it was run: as §1

lambsquarters [8] = assay: Test Example 4: herbicidal effect by soil treatment (Table 19, symbol O); format: in vivo, lambsquarters (Chenopodium album); details: amount of applied herbicide 320 g/ha
How it was run: as §1

rice flat sedge = assay: Test Example 3: herbicidal effect by foliage application, Wagner pot (Table 18, symbol E); format: in vivo, rice flat sedge (Cyperus iria); details: 320 g/ha
How it was run: (§3)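 Plants were sown in alluvial soil held under 0.1–0.5 cm standing water and grown 14 days in a greenhouse at 25–30 °C. An emulsifiable formulation, water-diluted to the set dose, was then sprayed onto the foliage, and effects were scored three weeks later using previously defined criteria.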

barnyard grass [9] = assay: Test Example 4: herbicidal effect by soil treatment (Table 19, symbol H); format: in vivo, barnyard grass (Echinochloa crus-galli); details: amount of applied herbicide 320 g/ha
How it was run: as §1

barnyard grass [10] = assay: Test Example 5: herbicidal effect by foliage application, plastic box (Table 20, symbol H); format: in vivo, barnyard grass (Echinochloa crus-galli); details: amount of applied herbicide 320 g/ha; foliage application after 14-day growth; evaluated three weeks after application
How it was run: as §2

green foxtail [11] = assay: Test Example 5: herbicidal effect by foliage application, plastic box (Table 20, symbol G); format: in vivo, green foxtail (Setaria viridis); details: amount of applied herbicide 320 g/ha; foliage application after 14-day growth; evaluated three weeks after application
How it was run: as §2

redroot pigweed [12] = assay: Test Example 5: herbicidal effect by foliage application, plastic box (Table 20, symbol N); format: in vivo, redroot pigweed (Amaranthus retroflexus); details: amount of applied herbicide 320 g/ha; foliage application after 14-day growth; evaluated three weeks after application
How it was run: as §2

persian speedwell [13] = assay: Test Example 4: herbicidal effect by soil treatment (Table 19, symbol R); format: in vivo, Persian speedwell (Veronica persica); details: amount of applied herbicide 320 g/ha
How it was run: as §1

green foxtail [14] = assay: Test Example 4: herbicidal effect by soil treatment (Table 19, symbol G); format: in vivo, green foxtail (Setaria viridis); details: amount of applied herbicide 320 g/ha
How it was run: as §1

blackgrass [15] = assay: Test Example 5: herbicidal effect by foliage application, plastic box (Table 20, symbol J); format: in vivo, blackgrass (Alopecurus myosuroides); details: amount of applied herbicide 320 g/ha; foliage application after 14-day growth; evaluated three weeks after application
How it was run: as §2

southern crabgrass [16] = assay: Test Example 5: herbicidal effect by foliage application, plastic box (Table 20, symbol F); format: in vivo, southern crabgrass (Digitaria ciliaris); details: amount of applied herbicide 320 g/ha; foliage application after 14-day growth; evaluated three weeks after application
How it was run: as §2

Chinese sprangletop = assay: Test Example 3: herbicidal effect by foliage application, Wagner pot (Table 18, symbol D); format: in vivo, chinese sprangletop (Leptochloa chinensis); details: 320 g/ha
How it was run: as §3

velvetleaf [17] = assay: Test Example 5: herbicidal effect by foliage application, plastic box (Table 20, symbol M); format: in vivo, velvetleaf (Abutilon theophrasti); details: amount of applied herbicide 320 g/ha; foliage application after 14-day growth; evaluated three weeks after application
How it was run: as §2

barnyard grass [18] = assay: Test Example 3: herbicidal effect by foliage application, Wagner pot (Table 18, symbol H); format: in vivo, barnyard grass (Echinochloa crus-galli); details: 320 g/ha
How it was run: as §3

southern crabgrass [19] = assay: Test Example 4: herbicidal effect by soil treatment (Table 19, symbol F); format: in vivo, southern crabgrass (Digitaria ciliaris); details: amount of applied herbicide 320 g/ha
How it was run: as §1

wild oat [20] = assay: Test Example 4: herbicidal effect by soil treatment (Table 19, symbol I); format: in vivo, wild oat (Avena fatua); details: amount of applied herbicide 320 g/ha
How it was run: as §1

persian speedwell [21] = assay: Test Example 5: herbicidal effect by foliage application, plastic box (Table 20, symbol R); format: in vivo, Persian speedwell (Veronica persica); details: amount of applied herbicide 320 g/ha; foliage application after 14-day growth; evaluated three weeks after application
How it was run: as §2

chickweed [22] = assay: Test Example 4: herbicidal effect by soil treatment (Table 19, symbol P); format: in vivo, common chickweed (Stellaria media); details: amount of applied herbicide 320 g/ha
How it was run: as §1

velvetleaf [23] = assay: Test Example 4: herbicidal effect by soil treatment (Table 19, symbol M); format: in vivo, velvetleaf (Abutilon theophrasti); details: amount of applied herbicide 320 g/ha
How it was run: as §1

windgrass [24] = assay: Test Example 5: herbicidal effect by foliage application, plastic box (Table 20, symbol L); format: in vivo, windgrass (Apera spica-venti); details: amount of applied herbicide 320 g/ha; foliage application after 14-day growth; evaluated three weeks after application
How it was run: as §2

chickweed [25] = assay: Test Example 5: herbicidal effect by foliage application, plastic box (Table 20, symbol P); format: in vivo, common chickweed (Stellaria media); details: amount of applied herbicide 320 g/ha; foliage application after 14-day growth; evaluated three weeks after application
How it was run: as §2

SMILES | J: blackgrass, herbicidal effect grade (blackgrass [1]) | N: redroot pigweed, herbicidal effect grade (redroot pigweed [2]) | Herbicidal effect by foliage application, I: wild oat (wild oat [3]) | Herbicidal effect by foliage application, K: Italian ryegrass (Italian ryegrass [4]) | K: Italian ryegrass, herbicidal effect grade (Italian ryegrass [5]) | Herbicidal effect by foliage application, O: lambsquarters (lambsquarters [6]) | L: windgrass, herbicidal effect grade (windgrass [7]) | O: lambsquarters, herbicidal effect grade (lambsquarters [8]) | herbicidal effect on rice flat sedge (E) (rice flat sedge) | H: barnyard grass, herbicidal effect grade (barnyard grass [9]) | Herbicidal effect by foliage application, H: barnyard grass (barnyard grass [10]) | Herbicidal effect by foliage application, G: green foxtail (green foxtail [11]) | Herbicidal effect by foliage application, N: redroot pigweed (redroot pigweed [12]) | R: persian speedwell, herbicidal effect grade (persian speedwell [13]) | G: green foxtail, herbicidal effect grade (green foxtail [14]) | Herbicidal effect by foliage application, J: blackgrass (blackgrass [15]) | Herbicidal effect by foliage application, F: southern crabgrass (southern crabgrass [16]) | herbicidal effect on Chinese sprangletop (D) (Chinese sprangletop) | Herbicidal effect by foliage application, M: velvetleaf (velvetleaf [17]) | herbicidal effect on barnyard grass (H) (barnyard grass [18]) | other results
Cc1nn(C)c(=O)c(-c2c(-c3ccc(C(F)(F)F)cc3)sc3cc(F)c(F)cc23)c1O [5-007] | 0 (Herbicidal rate of 5% or less (almost no effect)) | 3 (Herbicidal rate of 40% or more and less than 70%) | 2 (Herbicidal rate of 20% or more and less than 40%) | 0 (Herbicidal rate of 5% or less (almost no effect)) | 0 (Herbicidal rate of 5% or less (almost no effect)) | 5 (Herbicidal rate of 90% or more (almost completely withered)) | 0 (Herbicidal rate of 5% or less (almost no effect)) | 1 (Herbicidal rate of 5% or more and less than 20%) | 2 (Herbicidal rate of 20% or more and less than 40%) | 0 (Herbicidal rate of 5% or less (almost no effect)) | 3 (Herbicidal rate of 40% or more and less than 70%) | 4 (Herbicidal rate of 70% or more and less than 90%) | 5 (Herbicidal rate of 90% or more (almost completely withered)) | 3 (Herbicidal rate of 40% or more and less than 70%) | 3 (Herbicidal rate of 40% or more and less than 70%) | 0 (Herbicidal rate of 5% or less (almost no effect)) | 5 (Herbicidal rate of 90% or more (almost completely withered)) | 1 (Herbicidal rate of 5% or more and less than 20%) | 3 (Herbicidal rate of 40% or more and less than 70%) | 4 (Herbicidal rate of 70% or more and less than 90%) | F: southern crabgrass, herbicidal effect grade (southern crabgrass [19]): 0 (Herbicidal rate of 5% or less (almost no effect)); I: wild oat, herbicidal effect grade (wild oat [20]): 0 (Herbicidal rate of 5% or less (almost no effect)); Herbicidal effect by foliage application, R: persian speedwell (persian speedwell [21]): 5 (Herbicidal rate of 90% or more (almost completely withered)); P: chickweed, herbicidal effect grade (chickweed [22]): 3 (Herbicidal rate of 40% or more and less than 70%); M: velvetleaf, herbicidal effect grade (velvetleaf [23]): 0 (Herbicidal rate of 5% or less (almost no effect)); Herbicidal effect by foliage application, L: windgrass (windgrass [24]): 4 (Herbicidal rate of 70% or more and less than 90%); Herbicidal effect by foliage application, P: chickweed (chickweed [25]): 5 (Herbicidal rate of 90% or more (almost completely withered))
CC(=O)COc1ccc(-c2sc3cc(F)c(F)cc3c2-c2c(O)c(C)nn(C)c2=O)cc1 [5-023] | 0 (Herbicidal rate of 5% or less (almost no effect)) | 3 (Herbicidal rate of 40% or more and less than 70%) | 0 (Herbicidal rate of 5% or less (almost no effect)) | 0 (Herbicidal rate of 5% or less (almost no effect)) | 0 (Herbicidal rate of 5% or less (almost no effect)) | 3 (Herbicidal rate of 40% or more and less than 70%) | 0 (Herbicidal rate of 5% or less (almost no effect)) | 2 (Herbicidal rate of 20% or more and less than 40%) | 0 (Herbicidal rate of 5% or less (almost no effect)) | 0 (Herbicidal rate of 5% or less (almost no effect)) | 1 (Herbicidal rate of 5% or more and less than 20%) | 4 (Herbicidal rate of 70% or more and less than 90%) | 5 (Herbicidal rate of 90% or more (almost completely withered)) | 0 (Herbicidal rate of 5% or less (almost no effect)) | 0 (Herbicidal rate of 5% or less (almost no effect)) | 0 (Herbicidal rate of 5% or less (almost no effect)) | 0 (Herbicidal rate of 5% or less (almost no effect)) | 3 (Herbicidal rate of 40% or more and less than 70%) | 5 (Herbicidal rate of 90% or more (almost completely withered)) | 4 (Herbicidal rate of 70% or more and less than 90%) | F: southern crabgrass, herbicidal effect grade (southern crabgrass [19]): 0 (Herbicidal rate of 5% or less (almost no effect)); I: wild oat, herbicidal effect grade (wild oat [20]): 0 (Herbicidal rate of 5% or less (almost no effect)); Herbicidal effect by foliage application, R: persian speedwell (persian speedwell [21]): 3 (Herbicidal rate of 40% or more and less than 70%); P: chickweed, herbicidal effect grade (chickweed [22]): 3 (Herbicidal rate of 40% or more and less than 70%); M: velvetleaf, herbicidal effect grade (velvetleaf [23]): 0 (Herbicidal rate of 5% or less (almost no effect)); Herbicidal effect by foliage application, L: windgrass (windgrass [24]): 0 (Herbicidal rate of 5% or less (almost no effect)); Herbicidal effect by foliage application, P: chickweed (chickweed [25]): 5 (Herbicidal rate of 90% or more (almost completely withered))
